Laboratory results published in patent EP2757103B1, “PYRROLIDINE-3-YLACETIC ACID DERIVATIVE” (Eisai R&D Management Co., Ltd., priority 2011, dated 2013).

target: T1, CX3CR1 (Homo sapiens, UniProt P49238); experiment: Inhibition of cell migration in fractalkine-induced chemotaxis assay; format: cell-based; conditions: fractalkine-induced (0.3 nM) migration of CX3CR1-expressing B300 cells; preincubated with test compound for 30 minutes; Transwell, 3.5 hours at 37°C
T1 construct: expressed in transfected cells; host or cells: B300 cells
T1 sequence (P49238 1-355): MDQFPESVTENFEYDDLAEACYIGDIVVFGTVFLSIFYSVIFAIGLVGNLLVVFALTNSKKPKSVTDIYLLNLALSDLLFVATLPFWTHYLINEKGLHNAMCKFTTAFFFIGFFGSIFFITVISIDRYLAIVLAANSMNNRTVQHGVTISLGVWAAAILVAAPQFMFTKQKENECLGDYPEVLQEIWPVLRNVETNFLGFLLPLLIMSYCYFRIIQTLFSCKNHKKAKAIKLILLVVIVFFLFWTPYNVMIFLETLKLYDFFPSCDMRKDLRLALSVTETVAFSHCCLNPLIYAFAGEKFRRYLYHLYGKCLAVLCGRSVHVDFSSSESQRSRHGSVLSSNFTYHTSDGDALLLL
Procedure: The inhibitory effects of the example compounds on fractalkine-induced cell migration were examined using CX3CR1-transfected B300 cells
After equilibrating the Transwell plate (24-well clusters, pore size: 5 µm, manufactured by Corning Incorporated), a fractalkine solution (0.3 nM, manufactured by R&D Systems, Inc.) was added to the lower wells. CX3CR1-expressing B300 cells which were preincubated with the test compound (0.001, 0.003, 0.01 or 0.03 µM) for 30 minutes were placed in the upper layer wells, followed by incubation under the condition of 5% CO2 for 3.5 hours at 37°C. The number of cells migrated to the lower wells was evaluated using CellTiter (manufactured by Promega Corporation).
The inhibitory rate of the test compound on fractalkine-induced cell migration was calculated by the following formula, where [A] is the number of migrated cells in the presence of both fractalkine and the test compound, [B] is the number of migrated cells in the presence of fractalkine and in the absence of the test compound, and [C] is the number of migrated cells in the absence of both fractalkine and the test compound; the 50% inhibitory concentration (IC50) was calculated based on the inhibitory rate. Inhibitory rate (%) = [1-{(A-C)/(B-C)}] × 100

| SMILES | IC50 [nM] |
| --- | --- |
| CCCCCCN1CCC(NC(=O)[C@]2(CC(=O)O)CN(Cc3c(Cl)cccc3C(F)F)C[C@@H]2C)CC1 [Example 10, 2-[(3S,4R)-1-{[2-Chloro-6-(difluoromethyl)phenyl]methyl}-3-[(1-hexylpiperidin-4-yl)carbamoyl]-4-methylpyrrolidin-3-yl]acetic acid] | 14 |
| C[C@H]1CN(Cc2c(Cl)cccc2C(F)F)C[C@@]1(CC(=O)O)C(=O)NC1CCN(CC2=CCCC2)CC1 [Example 13, 2-[(3S,4R)-1-{[2-Chloro-6-(difluoromethyl)phenyl]methyl}-3-{[1-(cyclopent-1-en-1-ylmethyl)piperidin-4-yl]carbamoyl}-4-methylpyrrolidin-3-yl]acetic acid] | 16 |
| C[C@H]1CN(Cc2c(Cl)cccc2C(F)F)C[C@@]1(CC(=O)O)C(=O)NC1CCN(CC2=CCCCC2)CC1 [Example 12, 2-[(3S,4R)-1-{[2-Chloro-6-(difluoromethyl)phenyl]methyl}-3-{[1-(cyclohex-1-en-1-ylmethyl)piperidin-4-yl]carbamoyl}-4-methylpyrrolidin-3-yl]acetic acid] | 6 |
| C[C@H]1CN(Cc2c(Cl)cccc2Cl)C[C@@]1(CC(=O)O)C(=O)N[C@H]1CCN(CC2=CCCCC2)C1 [Example 9, 2-[(3S,4R)-3-{[(3S)-1-(Cyclohex-1-en-1-ylmethyl)pyrrolidin-3-yl]carbamoyl}-1-[(2,6-dichlorophenyl)methyl]-4-methylpyrrolidin-3-yl]acetic acid] | 16 |
| C[C@H]1CN(Cc2c(Cl)cccc2C(F)(F)F)C[C@@]1(CC(=O)O)C(=O)NC1CCN(CC2=CCCCC2)CC1 [Example 3, 2-[(3S,4R)-1-{[2-Chloro-6-(trifluoromethyl)phenyl]methyl}-3-{[1-(cyclohex-1-en-1-ylmethyl)piperidin-4-yl]carbamoyl}-4-methylpyrrolidin-3-yl]acetic acid] | 4 |
| Cc1cccc(Cl)c1CN1C[C@H](C)[C@](CC(=O)O)(C(=O)NC2CCN(CC3=CCCCC3)CC2)C1 [Example 6, 2-[(3S,4R)-1-[(2-Chloro-6-methylphenyl)methyl]-3-{[1-(cyclohex-1-en-1-ylmethyl)piperidin-4-yl]carbamoyl}-4-methylpyrrolidin-3-yl]acetic acid] | 11 |
| C[C@H]1CN(Cc2c(Cl)cccc2Cl)C[C@@]1(CC(=O)O)C(=O)NC1CCN(CC2CCC(F)(F)CC2)CC1 [Example 2, 2-[(3S,4R)-1-[(2,6-Dichlorophenyl)methyl]-3-({1-[(4,4-difluorocyclohexyl)methyl]piperidin-4-yl}carbamoyl)-4-methylpyrrolidin-3-yl]acetic acid] | 21 |
| C[C@H]1CN(Cc2c(Cl)cccc2C(F)F)C[C@@]1(CC(=O)O)C(=O)NC1CCN(CC2CCCCC2)CC1 [Example 14, 2-[(3S,4R)-1-{[2-Chloro-6-(difluoromethyl)phenyl]methyl}-3-{[1-(cyclohexylmethyl)piperidin-4-yl]carbamoyl}-4-methylpyrrolidin-3-yl]acetic acid] | 12 |
| CCCC(F)CN1CCC(NC(=O)[C@]2(CC(=O)O)CN(Cc3c(Cl)cccc3C(F)(F)F)C[C@@H]2C)CC1 (stereo partly drawn) [Example 1, 2-[(3S,4R)-1-{[2-chloro-6-(trifluoromethyl)phenyl]methyl}-3-{[1-(2-fluoropentyl)piperidin-4-yl]carbamoyl}-4-methylpyrrolidin-3-yl]acetic acid] | 13 |
| C[C@H]1CN(Cc2c(Cl)cccc2C(F)(F)F)C[C@@]1(CC(=O)O)C(=O)NC1CCN(CC2=CCCC2)CC1 [Example 7, 2-[(3S,4R)-1-{[2-Chloro-6-(trifluoromethyl)phenyl]methyl}-3-{[1-(cyclopent-1-en-1-ylmethyl)piperidin-4-yl]carbamoyl}-4-methylpyrrolidin-3-yl]acetic acid] | 5 |
